This is an account of results in US20090291942A1, “IMIDAZO PYRIDINE DERIVATIVES” (priority 2008, published 2009).

Molecules are shown by their SMILES. Structures can show the parent of a compound that is named as a salt.

T1 sequence (P46093 whole entry): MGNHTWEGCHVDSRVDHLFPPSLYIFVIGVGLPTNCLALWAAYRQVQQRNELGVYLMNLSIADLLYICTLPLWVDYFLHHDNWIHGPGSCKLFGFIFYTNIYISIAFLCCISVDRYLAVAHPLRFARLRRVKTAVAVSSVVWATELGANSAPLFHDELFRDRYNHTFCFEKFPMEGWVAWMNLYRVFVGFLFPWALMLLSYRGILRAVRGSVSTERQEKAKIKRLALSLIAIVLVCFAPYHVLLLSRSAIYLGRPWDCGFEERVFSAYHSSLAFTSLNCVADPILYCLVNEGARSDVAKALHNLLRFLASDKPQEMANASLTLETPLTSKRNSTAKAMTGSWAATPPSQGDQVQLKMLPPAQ

The test system of one assay is mouse antigen-induced arthritis. The experiment in a line: Mouse antigen-induced arthritis model. The conditions noted are these: female OFA-1 mice, 50 mg/kg (bid) po from day 0 for 7 days, R/L knee swelling ratio AUC vs control. In kind it is in vivo. As for the experimental part:
c) GPR4 Activity in Mouse Antigen-Induced Arthritis Model
Female OFA-1 mice were sensitized i.d. on the back at two sites to methylated bovine serum albumin (mBSA) homogenize 1:1 with complete Freund's adjuvant on days—21 and —14 (0.1 ml containing 1 mg/ml mBSA). On day 0, the right knee receives 10 μl of 10 mg/ml mBSA in 5% glucose solution (antigen-injected knee), while the left knee receives 10 μl of 5% glucose solution alone (vehicle-injected knee). The diameters of the left and right knees were then measured using callipers immediately after the intra-articular injections and again on days 2, 4, 7, 9, 11 and 14. Vehicle and compounds were applied po starting at day 0 for 7 days. Right knee swelling was evaluated relative to left knee swelling, and the R/L knee swelling ratio plotted against time to give area under the curve (AUC) graphs for control and treatment groups. The percentage inhibition of the individual treatment group AUCs were calculated vs the control group AUC (0% inhibition) using an excel spreadsheet. On day 7, the mice were killed by CO2 inhalation and the right and left knees removed and processed for histological analysis.
Take `CCc1nc2c(C)cc(C)nc2n1Cc1ccc(/C=C/CN2CCC(N3CCCCC3)CC2)cc1` [Example 33, 1′-{(E)-3-[4-(2-Ethyl-5,7-dimethyl-imidazo[4,5-b]pyridin-3-ylmethyl)-phenyl]-allyl}-[1,4′]bipiperidinyl dihydrochloride]: the Δ swelling ratio is listed as 59%.

The subject of a further assay is VEGF-induced angiogenesis. The experiment in a line: GPR4 activity in VEGF-induced angiogenesis (angiogenesis growth factor implant model). In kind it is in vivo. The conditions noted are these: mice, 10 mg/kg (qd) po, chamber tissue weighed on 4th day after implantation.
Method: The functional activity of GPR4 was determined in the angiogenesis growth factor implant model. Porous tissue chambers made of perfluoro-alkoxy-Teflon were filled with 0.8% agar and 20 U/ml heparin supplemented with or without 8 μg/ml recombinant human VEGF. The solutions were maintained at 39° C. prior to the filling procedure. Mice were anesthetized using 3% isoflurane inhalation. For subcutaneous implantation, a small skin incision was made at the base of the tail to allow the insertion of an implant trocar. The chamber was implanted under aseptic conditions through the small incision onto the back of the animal. The skin incision was closed by wound clips. On the 4th day after implantation, animals were sacrificed using CO2. Chambers were excised and the vascularized fibrous tissue formed around each implant carefully removed and weighed. Body weight was used to monitor the general condition of the mice. The compounds were applied po at the day of the chamber implantation.
The compound `CCc1nc2c(C)cc(C)nc2n1Cc1ccc(/C=C/CN2CCC(N3CCCCC3)CC2)cc1` [Example 33, 1′-{(E)-3-[4-(2-Ethyl-5,7-dimethyl-imidazo[4,5-b]pyridin-3-ylmethyl)-phenyl]-allyl}-[1,4′]bipiperidinyl dihydrochloride] returned a Δ tissue weight of 45%.

The next assay addresses T1, human GPR4 (Homo sapiens, UniProt P46093).
T1 construct: expressed in transfected cells
In words: Cell-based assay for human GPR4 activity (pH-induced cAMP formation, HTRF). The conditions noted are these: HeLa cells stably expressing human GPR4, pH-induced cAMP formation. The method in brief: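 HeLa cells stably expressing human GPR4, pre-incubated 15 min at room temperature with compound in pH 8 buffer containing 2 mM IBMX. Buffer B added to set the final stimulation pH, then a further 15 min at room temperature; cAMP read by HTRF.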
Broadly, the IC50 is the point on the concentration scale where inhibition reaches its midpoint. Low readings indicate greater potency in that assay, high ones weaker potency in that assay. `CCc1nc2c(C)cc(C)nc2n1Cc1ccc(/C=C/CN2CCC(N3CCCCC3)CC2)cc1` [Example 33, 1′-{(E)-3-[4-(2-Ethyl-5,7-dimethyl-imidazo[4,5-b]pyridin-3-ylmethyl)-phenyl]-allyl}-[1,4′]bipiperidinyl dihydrochloride]: the IC50 came to 0.071 µM.
Compound `COC(=O)C1CCN(C/C=C/c2ccc(Cn3c(C(F)(F)F)nc4c(C)cc(C)nc43)cc2)CC1` [Example 90, 1-{(E)-3-[4-(5,7-Dimethyl-2-trifluoromethyl-imidazo[4,5-b]pyridin-3-ylmethyl)-phenyl]-allyl}-piperidine-4-carboxylic acid methyl ester hydrochloride] returned an IC50 of 0.568 µM.
For the compound `Cc1cc(C)c2nc(C(F)(F)F)n(Cc3ccc(/C=C/CN4CCN(C(C)C)CC4)cc3)c2n1` [Example 91, 3-{4-[(E)-3-(4-Isopropyl-piperazin-1-yl)-propenyl]-benzyl}-5,7-dimethyl-2-trifluoromethyl-3H-imidazo[4,5-b]pyridine dihydrochloride], the IC50 was found to be 0.14 µM.
Same read-out and setting: the value for `Cc1cc(C)c2nc(C(F)(F)F)n(Cc3ccc(/C=C/CN4CCN(C(C)(C)C)CC4)cc3)c2n1` [Example 92, 3-{4-[(E)-3-(4-tert-Butyl-piperazin-1-yl)-propenyl]-benzyl}-5,7-dimethyl-2-trifluoromethyl-3H-imidazo[4,5-b]pyridine] was 0.03 µM.
In turn, `CCc1nc2c(C)cc(C)nc2n1Cc1ccc(/C=C(\F)CN2CCC(N3CCCCC3)CC2)cc1` [Example 93, 1′-{(Z)-3-[4-(2-Ethyl-5,7-dimethyl-imidazo[4,5-b]pyridin-3-ylmethyl)-phenyl]-2-fluoro-allyl}-[1,4′]bipiperidinyl dihydrochloride] displayed an IC50 of 0.029 µM.
As for `CCc1nc2c(C)cc(C)nc2n1Cc1ccc(/C=C(\F)CN2CCN(C(C)C)CC2)cc1` [Example 94, 2-Ethyl-3-{4-[(Z)-2-fluoro-3-(4-isopropyl-piperazin-1-yl)-propenyl]-benzyl}-5,7-dimethyl-3H-imidazo[4,5-b]pyridine dihydrochloride], the IC50 was 0.024 µM.
As for `CCc1nc2c(C)cc(C)nc2n1Cc1ccc(/C=C(\F)CN2CCN(C(C)(C)C)CC2)cc1` [Example 95, 3-{4-[(Z)-3-(4-tert-Butyl-piperazin-1-yl)-2-fluoro-propenyl]-benzyl}-2-ethyl-5,7-dimethyl-3H-imidazo[4,5-b]pyridine dihydrochloride], the IC50 was 0.031 µM.
The same measure, in the same setting: the value for `CCc1nc2c(C)cc(C)nc2n1Cc1ccc(/C=C/C(=O)N2CCC(N(CC)CC)CC2)cc1` [Example 96, (E)-1-(4-Diethylamino-piperidin-1-yl)-3-[4-(2-ethyl-5,7-dimethyl-imidazo[4,5-b]pyridin-3-ylmethyl)-phenyl]-propenone] was 0.994 µM; that for `CCc1nc2c(C)cc(C)nc2n1Cc1ccc(/C=C/C(=O)N2CCC(N3CCCCC3)CC2)cc1` [Example 97, (E)-1-[1,4′]Bipiperidinyl-1′-yl-3-[4-(2-ethyl-5,7-dimethyl-imidazo[4,5-b]pyridin-3-ylmethyl)-phenyl]-propenone hydrochloride] was 0.445 µM; that for `CCc1nc2c(C)cc(C)nc2n1Cc1ccc(/C=C/C(=O)N2CCC(N3CCOCC3)CC2)cc1` [Example 98, (E)-3-[4-(2-Ethyl-5,7-dimethyl-imidazo[4,5-b]pyridin-3-ylmethyl)-phenyl]-1-(4-morpholin-4-yl-piperidin-1-yl)-propenone] was 0.328 µM.
As for `CCc1nc2c(C)cc(C)nc2n1Cc1ccc(C(=O)NCCCCN2CCCC2)cc1` [Example 99, 4-(2-Ethyl-5,7-dimethyl-imidazo[4,5-b]pyridin-3-ylmethyl)-N-(4-pyrrolidin-1-yl-butyl)-benzamide], 0.997 µM corresponded to half-maximal inhibition (IC50).
`CCc1nc2c(C)cc(C)nc2n1Cc1ccc(C(=O)NCCCCN2CCCCCC2)cc1` [Example 100, N-(4-Azepan-1-yl-butyl)-4-(2-ethyl-5,7-dimethyl-imidazo[4,5-b]pyridin-3-ylmethyl)-benzamide] had an IC50 of 0.495 µM.
`CCc1nc2c(C)cc(C)nc2n1Cc1ccc(NC(=O)CCCCN2CCCC2)cc1` [Example 101, 5-Pyrrolidin-1-yl-pentanoic acid [4-(2-ethyl-5,7-dimethyl-imidazo[4,5-b]pyridin-3-ylmethyl)-phenyl]-amide] yielded an IC50 of 0.364 µM.
Same read-out and setting: the value for `CCc1nc2c(C)cc(C)nc2n1Cc1ccc(NC(=O)CCCCN2CCCCC2)cc1` [Example 102, 5-Piperidin-1-yl-pentanoic acid [4-(2-ethyl-5,7-dimethyl-imidazo[4,5-b]pyridin-3-ylmethyl)-phenyl]-amide] was 0.241 µM; that for `CCc1nc2c(C)cc(C)nc2n1Cc1ccc(/C=C/CCN2CCN(C(C)(C)C)CC2)cc1` [Example 104, 3-{4-[(E)-4-(4-tert-Butyl-piperazin-1-yl)-but-1-enyl]-benzyl}-2-ethyl-5,7-dimethyl-3H-imidazo[4,5-b]pyridine dihydrochloride] was 0.06 µM.
For `CCc1nc2c(C)cc(C)nc2n1Cc1ccc(/C=C/CCN2CCC(N3CCCCC3)CC2)cc1` [Example 105, 1′-{(E)-4-[4-(2-Ethyl-5,7-dimethyl-imidazo[4,5-b]pyridin-3-ylmethyl)-phenyl]-but-3-enyl}-[1,4′]bipiperidine], the midpoint of inhibition, the IC50, lay at 0.115 µM.
On the same count and under the same terms, the value for `CCc1nc2c(C)cc(C)nc2n1Cc1ccc(/C=C/CCN2CCN(C(C)C)CC2)cc1` [Example 106, 2-Ethyl-3-{4-[(E)-4-(4-isopropyl-piperazin-1-yl)-but-1-enyl]-benzyl}-5,7-dimethyl-3H-imidazo[4,5-b]pyridine dihydrochloride] was 0.098 µM.
`CCc1nc2c(C)cc(C)nc2n1Cc1ccc(/C=C/CCN2CCC(N3CCN(C)CC3)CC2)cc1` [Example 107, 2-Ethyl-5,7-dimethyl-3-{4-[(E)-4-[4-(4-methyl-piperazin-1-yl)-piperidin-1-yl]-but-1-enyl]-benzyl}-3H-imidazo[4,5-b]pyridine] had an IC50 of 0.191 µM.
Still for that read-out and setting: the value for `CCc1nc2c(C)cc(C)nc2n1Cc1ccc(/C=C/CCN2CCC(N3CCOCC3)CC2)cc1` [Example 108, 2-Ethyl-5,7-dimethyl-3-{4-[(E)-4-(4-morpholin-4-yl-piperidin-1-yl)-but-1-enyl]-benzyl}-3H-imidazo[4,5-b]pyridine dihydrochloride] was 0.447 µM; that for `CCc1nc2c(C)cc(C)nc2n1Cc1ccc(/C=C/CCn2ccnc2)cc1` [Example 109] was 0.37 µM.
Still for that read-out and setting: the value for `CCc1nc2c(C)cc(C)nc2n1Cc1ccc(CCCCN2CCN(C(C)(C)C)CC2)cc1` [Example 110, 3-{4-[4-(4-tert-Butyl-piperazin-1-yl)-butyl]-benzyl}-2-ethyl-5,7-dimethyl-3H-imidazo[4,5-b]pyridine dihydrochloride] was 0.098 µM; that for `CCc1nc2c(C)cc(C)nc2n1Cc1ccc(CCCCN2CCN(C(C)C)CC2)cc1` [Example 111, 2-Ethyl-3-{4-[4-(4-isopropyl-piperazin-1-yl)-butyl]-benzyl}-5,7-dimethyl-3H-imidazo[4,5-b]pyridine dihydrochloride] was 0.412 µM; that for `CCc1nc2c(C)cc(C)nc2n1Cc1ccc(CCCCN2CCC(N3CCCCC3)CC2)cc1` [Example 112, 1′-{4-[4-(2-Ethyl-5,7-dimethyl-imidazo[4,5-b]pyridin-3-ylmethyl)-phenyl]-butyl}-[1,4′]bipiperidine] was 0.059 µM.
